Assay results published in ChEMBL document CHEMBL1201862, “PubChem BioAssay data set” (2004).
Structures can show the parent of a compound that is named as a salt.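 Five compound concentrations were applied to cells in 96-well plates for 48 hours; endpoints were derived by simple linear interpolation of the resulting dose-response curve. GI50 is the concentration that inhibits growth by half.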 Activity calls are given as the source filed them. No stated cut-off is given here; in the data, active = GI50 up to about 1.1 µM and inactive = higher.

Columns and labels:
Test in all cases: NCI tumour cell line growth inhibition, 48 h
A498 = tested on: A498
A549 = tested on: A549
ACHN = tested on: ACHN
CAKI-1 = tested on: CAKI-1
CCRF-CEM = tested on: CCRF-CEM
COLO 205 = tested on: COLO 205
DLD-1 = tested on: DLD-1
DMS-273 = tested on: DMS-273
HCC 2998 = tested on: HCC 2998
HCT-116 = tested on: HCT-116
HCT-15 = tested on: HCT-15
HL-60 = tested on: HL-60
HOP-18 = tested on: HOP-18
HOP-62 = tested on: HOP-62
HOP-92 = tested on: HOP-92
HT-29 = tested on: HT-29
KM12 = tested on: KM12
LOX IMVI = tested on: LOX IMVI
LXFL 529 = tested on: LXFL 529
M14 = tested on: M14
MOLT-4 = tested on: MOLT-4
Malme-3M = tested on: Malme-3M
NCI-H226 = tested on: NCI-H226
NCI-H23 = tested on: NCI-H23
NCI-H460 = tested on: NCI-H460
NCI-H522 = tested on: NCI-H522
OVCAR-4 = tested on: OVCAR-4
OVCAR-5 = tested on: OVCAR-5
RPMI-8226 = tested on: RPMI-8226
RXF 393 = tested on: RXF 393
SF-268 = tested on: SF-268
SF-295 = tested on: SF-295
SK-MEL-28 = tested on: SK-MEL-28
SK-MEL-2 = tested on: SK-MEL-2
SK-OV-3 = tested on: SK-OV-3
SN12C = tested on: SN12C
SNB-19 = tested on: SNB-19
SNB-75 = tested on: SNB-75
SNB-78 = tested on: SNB-78
SR = tested on: SR
SW-620 = tested on: SW-620
TK-10 = tested on: TK-10
U-251 = tested on: U-251
UACC-257 = tested on: UACC-257
XF498 = tested on: XF498
786-0 = tested on: 786-0
DMS-114 = tested on: DMS-114
IGROV-1 = tested on: IGROV-1
K562 = tested on: K562
KM-20L2 = tested on: KM-20L2
M19-MEL = tested on: M19-MEL
OVCAR-8 = tested on: OVCAR-8
SF-539 = tested on: SF-539
SK-MEL-5 = tested on: SK-MEL-5
UACC-62 = tested on: UACC-62
BT-549 = tested on: BT-549
DU-145 = tested on: DU-145
EKVX = tested on: EKVX
Hs-578T = tested on: Hs-578T
MCF7 = tested on: MCF7
MDA-MB-231 = tested on: MDA-MB-231
MDA-MB-435 = tested on: MDA-MB-435
MDA-N = tested on: MDA-N
NCI/ADR-RES = tested on: NCI/ADR-RES
OVCAR-3 = tested on: OVCAR-3
PC-3 = tested on: PC-3
T47D = tested on: T47D
UO-31 = tested on: UO-31

With `COC(=O)c1cccc(C(=O)OC)c1` the GI50 (A498) was > 100 µM (inactive), the GI50 (A549) was > 100 µM (inactive) and the GI50 (ACHN) was > 100 µM (inactive). The GI50 (CAKI-1) was > 100 µM (inactive), the GI50 (CCRF-CEM) was > 100 µM (inactive) and the GI50 (COLO 205) was > 100 µM (inactive). The GI50 (DLD-1) was > 100 µM (inactive), the GI50 (DMS-273) was > 100 µM (inactive) and the GI50 (HCC 2998) was > 100 µM (inactive). The GI50 (HCT-116) was > 100 µM (inactive), the GI50 (HCT-15) was > 100 µM and the GI50 (HL-60) was > 100 µM (inactive). For the same molecule, the GI50 (HOP-18) was > 100 µM (inactive), the GI50 (HOP-62) was > 100 µM (inactive) and the GI50 (HOP-92) was > 100 µM (inactive). The GI50 (HT-29) was > 100 µM (inactive), the GI50 (KM12) was > 100 µM (inactive) and the GI50 (LOX IMVI) was > 100 µM (inactive). For the same molecule, the GI50 (LXFL 529) was > 100 µM (inactive), the GI50 (M14) was > 100 µM (inactive) and the GI50 (MOLT-4) was > 100 µM (inactive). For the same molecule, the GI50 (Malme-3M) was > 100 µM (inactive), the GI50 (NCI-H226) was > 100 µM (inactive) and the GI50 (NCI-H23) was > 100 µM (inactive). The GI50 (NCI-H460) was > 100 µM (inactive), the GI50 (NCI-H522) was > 100 µM (inactive) and the GI50 (OVCAR-4) was > 100 µM (inactive). For the same molecule, the GI50 (OVCAR-5) was > 100 µM (inactive), the GI50 (RPMI-8226) was > 100 µM (inactive) and the GI50 (RXF 393) was > 100 µM (inactive). The GI50 (SF-268) was > 100 µM (inactive), the GI50 (SF-295) was > 100 µM (inactive) and the GI50 (SK-MEL-28) was > 100 µM (inactive). The GI50 (SK-MEL-2) was > 100 µM (inactive), the GI50 (SK-OV-3) was > 100 µM (inactive) and the GI50 (SN12C) was > 100 µM (inactive). The GI50 (SNB-19) was > 100 µM (inactive), the GI50 (SNB-75) was > 100 µM (inactive) and the GI50 (SNB-78) was > 100 µM (inactive). The GI50 (SR) was > 100 µM (inactive), the GI50 (SW-620) was > 100 µM (inactive) and the GI50 (TK-10) was > 100 µM (inactive). The GI50 (U-251) was > 100 µM (inactive), the GI50 (UACC-257) was > 100 µM (inactive) and the GI50 (XF498) was > 100 µM (inactive).
For `COc1ccc2cc3[n+](cc2c1OC)CCc1cc2c(cc1-3)OCO2` [BERBERINE SULFATE], the GI50 (786-0) was 51.5 µM (inactive), the GI50 (A498) was > 100 µM (inactive) and the GI50 (CCRF-CEM) was 10.5 µM (inactive). For the same molecule, the GI50 (DMS-114) was 4.33 µM (inactive), the GI50 (DMS-273) was 17.2 µM (inactive) and the GI50 (HL-60) was 14 µM (inactive). For the same molecule, the GI50 (HOP-92) was 23.6 µM (inactive), the GI50 (HT-29) was 32.6 µM (inactive) and the GI50 (IGROV-1) was 36 µM (inactive). The GI50 (K562) was 14.1 µM (inactive), the GI50 (KM-20L2) was 30.8 µM (inactive) and the GI50 (KM12) was 4.88 µM (inactive). The GI50 (LOX IMVI) was 43.1 µM (inactive), the GI50 (LXFL 529) was 4.37 µM (inactive) and the GI50 (M14) was 32.5 µM (inactive). The GI50 (M19-MEL) was 7.6 µM (inactive), the GI50 (Malme-3M) was 9.62 µM (inactive) and the GI50 (NCI-H23) was 8.34 µM (inactive). The GI50 (NCI-H460) was 17.9 µM (inactive), the GI50 (OVCAR-5) was > 91.8 µM (inactive) and the GI50 (OVCAR-8) was 18.1 µM (inactive). For the same molecule, the GI50 (SF-268) was 6.15 µM (inactive), the GI50 (SF-539) was 33.8 µM (inactive) and the GI50 (SK-MEL-28) was 19.3 µM (inactive). For the same molecule, the GI50 (SK-MEL-2) was 15.5 µM (inactive), the GI50 (SK-MEL-5) was 5.07 µM (inactive) and the GI50 (SK-OV-3) was > 80.9 µM (inactive). The GI50 (SNB-19) was 8.13 µM (inactive), the GI50 (SNB-75) was 27.5 µM (inactive) and the GI50 (SNB-78) was 34.4 µM (inactive). For the same molecule, the GI50 (SW-620) was 30.1 µM (inactive), the GI50 (TK-10) was > 100 µM (inactive) and the GI50 (UACC-62) was 17.8 µM (inactive). The GI50 (XF498) was 14 µM (inactive).
For `C=C(C)[C@H]1Cc2c(ccc3c2O[C@@H]2COc4cc(OC)c(OC)cc4[C@@H]2C3=O)O1` [ROTENONE], the GI50 (786-0) was 0.236 µM (active), the GI50 (A498) was 0.335 µM (active) and the GI50 (A549) was 0.0785 µM (active). For the same molecule, the GI50 (ACHN) was 0.0522 µM (active), the GI50 (BT-549) was 0.164 µM (active) and the GI50 (CAKI-1) was 0.185 µM (active). For the same molecule, the GI50 (CCRF-CEM) was 0.951 µM (active), the GI50 (COLO 205) was 0.118 µM (active) and the GI50 (DLD-1) was 0.241 µM (active). The GI50 (DMS-114) was < 0.01 µM (active), the GI50 (DMS-273) was 0.0378 µM (active) and the GI50 (DU-145) was 0.133 µM (active). The GI50 (EKVX) was 0.736 µM (active), the GI50 (HCC 2998) was 0.316 µM (active) and the GI50 (HCT-116) was 0.0618 µM (active). The GI50 (HCT-15) was 0.122 µM, the GI50 (HL-60) was 0.0611 µM (active) and the GI50 (HOP-62) was 0.168 µM (active). For the same molecule, the GI50 (HOP-92) was 0.116 µM (active), the GI50 (HT-29) was 0.127 µM (active) and the GI50 (Hs-578T) was 0.0785 µM (active). The GI50 (IGROV-1) was 0.126 µM (active), the GI50 (K562) was 0.0929 µM (active) and the GI50 (KM-20L2) was 0.128 µM (active). The GI50 (KM12) was 0.0897 µM (active), the GI50 (LOX IMVI) was 0.0624 µM (active) and the GI50 (LXFL 529) was 0.0368 µM (active). The GI50 (M14) was 0.21 µM (active), the GI50 (M19-MEL) was 0.0559 µM (active) and the GI50 (MCF7) was 0.281 µM (active). For the same molecule, the GI50 (MDA-MB-231) was 1.02 µM (active), the GI50 (MDA-MB-435) was 0.0206 µM (active) and the GI50 (MDA-N) was 0.0423 µM (active). For the same molecule, the GI50 (MOLT-4) was 0.693 µM (active), the GI50 (Malme-3M) was 0.0762 µM (active) and the GI50 (NCI-H226) was 0.177 µM (active). For the same molecule, the GI50 (NCI-H23) was 0.0258 µM (active), the GI50 (NCI-H460) was 0.0891 µM (active) and the GI50 (NCI-H522) was 0.0247 µM (active). The GI50 (NCI/ADR-RES) was 0.0635 µM (active), the GI50 (OVCAR-3) was 0.0566 µM (active) and the GI50 (OVCAR-4) was 0.577 µM (active). For the same molecule, the GI50 (OVCAR-5) was 2.55 µM (inactive), the GI50 (OVCAR-8) was 0.257 µM (active) and the GI50 (PC-3) was 0.155 µM (active). The GI50 (RPMI-8226) was 0.0575 µM (active), the GI50 (RXF 393) was 0.0836 µM (active) and the GI50 (SF-268) was 0.191 µM (active). For the same molecule, the GI50 (SF-295) was 0.0399 µM (active), the GI50 (SF-539) was 0.128 µM (active) and the GI50 (SK-MEL-28) was 0.162 µM (active). The GI50 (SK-MEL-2) was 0.171 µM (active), the GI50 (SK-MEL-5) was 0.0203 µM (active) and the GI50 (SK-OV-3) was 0.206 µM (active). For the same molecule, the GI50 (SN12C) was 0.404 µM (active), the GI50 (SNB-19) was 0.327 µM (active) and the GI50 (SNB-75) was 0.152 µM (active). For the same molecule, the GI50 (SNB-78) was 0.456 µM (active), the GI50 (SR) was 0.617 µM (active) and the GI50 (SW-620) was 0.131 µM (active). For the same molecule, the GI50 (T47D) was 0.0989 µM (active), the GI50 (TK-10) was 0.229 µM (active) and the GI50 (U-251) was 0.224 µM (active). For the same molecule, the GI50 (UACC-257) was 0.0516 µM (active), the GI50 (UACC-62) was 0.0597 µM (active) and the GI50 (UO-31) was 0.131 µM (active). The GI50 (XF498) was 0.055 µM (active).
